Experimental data: patent US20240366555A1, “SELECTIVE MTORC2 INHIBITOR AND USES THEREOF” (ALIAD BIOPHARMA, priority 2021, published 2024)

Biological target: T1, mTORC1 (Homo sapiens, UniProt P42345)
T1 construct: mTORC1 was isolated by co-immunoprecipitation using Flag antibody; made in house; host or cells: HEK 293T transfected with Flag-Raptor
Assay: In vitro mTORC1 kinase assay (GST-S6K Thr389 phosphorylation, immunoblot)
Type: biochemical
Experimental: In order to investigate the effect on mTORC1 activity of norathyriol, in vitro mTORC1 kinase assay was performed. After introducing Flag-Raptor into a human cell line 293T, mTORC1 was isolated by co-immunoprecipitation using Flag antibody. In addition, the activity of the isolated mTORC1 complex was evaluated by measuring phosphorylation of GST-S6K Thr389, which is a selective substrate of mTORC1, by immunoblot analysis. In the control group in which Flag-Raptor was not introduced, GST-S6K Thr389 phosphorylation was almost not measured. […] Therefore, it was judged that GST-S6K Thr389 phosphorylation measured in the in vitro mTORC1 kinase assay was generated by mTORC1. In order to evaluate the inhibitory effect of norathyriol on mTORC1 activity, norathyriol was pretreated for 15 minutes, and then in vitro mTORC1 kinase assay was carried out.
More specifically, the HEK 293T cells were cultured in a DMEM culture medium in which 10% heat inactivated FBS+1× Glutamax was added. 8×10^5 HEK 293T cells were seeded in a 100 mm culture dish, and then they were cultured for 1 day. After mixing 42 μl Lipofectamine, 21 μl plus reagent, and 21 μg Flag-Raptor plasmid DNA to 1 ml OPTI-MEM, it was shaken at a room temperature for 25 minutes to prepare a transfection DNA mixture. The transfection DNA mixture was slowly treated on the cells drop by drop, and after culturing for 5 hours, the culture medium was replaced with a new culture medium. […] The protein concentration of the cell lysate was determined with BCA protein assay kit (Thermo Fisher Scientific). […] Thr389 phosphorylation of GST-S6K1, which is a substrate of mTORC1, was measured by performing immunoblot analysis using phospho Thr389 p70 S6 kinase antibody (#9205S, Cell Signaling) and GST antibody (#A190-122A, Bethyl Laboratories). […]

GST-S6K Thr389 phosphorylation (20 μM, 40 μM and 80 μM, FIG. 6c): not reduced at a significant level
IC50 (in vitro mTORC1 kinase assay): > 80 µM
Compound: O=c1c2cc(O)c(O)cc2oc2cc(O)cc(O)c12 [norathyriol, 1,3,6,7-tetrahydroxy-9H-xanthen-9-one]
